Source: EP1171107B1, “USE OF A PHARMACEUTICAL COMPOSITION IN THE MANUFACTURE OF A MEDICAMENT FOR THE TREATMENT OF PATHOLOGICAL CONDITIONS OF THE EYE CAUSED BY BACTERIA, VIRUSES, FUNGI, YEASTS AND PROTOZOA” (Dr. GERHARD MANN chem.-pharm. Fabrik GmbH, priority 1999, dated 2000)

Legend:
Type in all cases: cell-based
P.aeruginosa [1] = test: Qualitative examination: enrichment of the inoculated test preparation in broth
Description: (§1) Escherichia (E.coli) Staphylococcus (S.aureus) Streptococcus (Sc.) Pneumoniae Pseudomonas (P.aeruginosa) Staphylococcus (S. epidermidis) Haemophilus (H. influenzae)
(§2) Die verschiedenen Testkeime wurde jeweils aus einem Lyophilisat in NaCl-Peptonpuffer homogenisiert und auf Caseinpepton-Sojymehlpepton. (Caso-) Agar (Fa. bioMérieux; Art. Nr. 43019) bez. Kochblut-Agar (Fa. bioMérieux; Art. Nr. 43109) subkultiviert. Die Teststämme wurden vor Versuchsbeginn durch Erstellen eines biochemischen Profils mittels ATB/Vitek-System (Fa. bioMérieux, Nürtingen) auf Reinheit und Identität überprüft.
(§3) Die verschiedenen Testsubstanzen a. bis j. wurden jeweils zu 5 ml in sterile Zentrifugenröhrchen abgefüllt und mit ca. 10^5 KBE^*/ml (* = koloniebildende Einheiten) der oben genannten Testkeime kontaminiert. Pro Substanz wurde für jeden Testkeim und jede zu prüfende Testzeit ein separater Ansatz angeimpft, d.h.10 Testsubstanzen zu jeweils 7 Testzeiten und 6 Testkeime (= insgesamt 502 Testansätze). Nach 2, 6, 8, 24, 32, 48 und 72 Stunden wurde dann der jeweilige Testansatz 10 Minuten bei 3000 rpm abzentrifugiert. Der Überstand wurde dekantiert und das Pellet in 5 ml NaCl Peptonpuffer aufgenommen und resuspendiert. Die Suspension wurde erneut 10 Minuten bei 3000 rpm abzentrifugiert und 5 ml NaCl-Peptonpuffer aufgenommen und mittels Vortex homogenisiert.
(§4) Jeweils 2 ml der Testansätze wurden in 20 ml Caso-Bouillon oder für H. influenzae, in Fildes-Medium der Firma Becton Dickinson, ARt. Nr. 0349-739, angereichert und ebenfalls maximal 4 Tage bei 33± 2°C bebrütet. Ein negatives Ergebnis der Anreicherung belegt die Elimination der inokulierten Keime.

H.influenzae [2] = test: as above
Description: as §1, §2, §3, §4

S.aureus = test: as above
Description: as §1, §2
as §3, with “Nach 2, 6, 8, 24, 32, 48 und 72 Stunden wurde dann der jeweilige Testansatz 10 Minuten bei 3000 rpm abzentrifugiert.” left out
as §4

Sc. pneumoniae [3] = test: as above
Description: as §1, §2
as §3, with “Nach 2, 6, 8, 24, 32, 48 und 72 Stunden wurde dann der jeweilige Testansatz 10 Minuten bei 3000 rpm abzentrifugiert.” left out
as §4

E.coli [4] = test: as above
Description: as §1, §2
as §3, with “Nach 2, 6, 8, 24, 32, 48 und 72 Stunden wurde dann der jeweilige Testansatz 10 Minuten bei 3000 rpm abzentrifugiert.” left out
as §4

S.epidermidis [5] = test: as above
Description: as §1, §2
as §3, with “Nach 2, 6, 8, 24, 32, 48 und 72 Stunden wurde dann der jeweilige Testansatz 10 Minuten bei 3000 rpm abzentrifugiert.” left out
as §4

P.aeruginosa [6] = test: Quantitative germ count (re-isolation, surface method) after inoculating the test preparation; conditions: Ausgangskeimzahl 2,7 x 10^5 KBE/ml
Description: as §1, §2
(§5) Die Ausgangskeimzahl wurde im Oberflächenverfahren mit Hilfe eines Spiralplaters (Fa. Meintrup, Lähden) ermittelt und ist im einzelnen den Tabellen 1-12 zu entnehmen.
as §3
(§6) Die anschließende Keimzahlbestimmung erfolgte im Oberflächenverfahren durch Ausspiralisieren eines […] Aliquots auf Caso-Agar bzw. für H. influenzae auf Kochblut-Agar. Die Platten wurden bei 33±2°C für max. 4 Tage bebrütet. Die Nachweisgrenze des Verfahrens liegt bei 100 KBE/ml.

S.epidermidis [7] = test: as above; conditions: Ausgangskeimzahl 2,1 x 10^5 KBE/ml
Description: as §1, §2, §5, §3, §6

Sc. pneumoniae [8] = test: as above; conditions: Ausgangskeimzahl 3,7 x 10^5 KBE/ml
Description: as §1, §2, §5
as §3, with “Nach 2, 6, 8, 24, 32, 48 und 72 Stunden wurde dann der jeweilige Testansatz 10 Minuten bei 3000 rpm abzentrifugiert.” left out
as §6

E.coli [9] = test: as above; conditions: Ausgangskeimzahl 2,7 x 10^5 KBE/ml
Description: as §1, §2, §5
as §3, with “Nach 2, 6, 8, 24, 32, 48 und 72 Stunden wurde dann der jeweilige Testansatz 10 Minuten bei 3000 rpm abzentrifugiert.” left out
as §6

H.influenzae [10] = test: as above; conditions: Ausgangskeimzahl 2,8 x 10^5 KBE/ml
Description: as §1, §2, §5
as §3, with “Nach 2, 6, 8, 24, 32, 48 und 72 Stunden wurde dann der jeweilige Testansatz 10 Minuten bei 3000 rpm abzentrifugiert.” left out
as §6

## CC1COc2c(N3CCN(C)CC3)c(F)cc3c(=O)c(C(=O)O)cn1c23 (stereo not shown) [Ofloxacin 0,3 Gew.-%, Ofloxacin, reference compound]
P.aeruginosa [1]; 2 h after inoculation
  Ergebnis der Reisolierung qualitiativ (+/-) nach Anreicherung: -
P.aeruginosa [1]; 4 h after inoculation
  Ergebnis der Reisolierung qualitiativ (+/-) nach Anreicherung: +
P.aeruginosa [1]; 6 h after inoculation
  Ergebnis der Reisolierung qualitiativ (+/-) nach Anreicherung: -
P.aeruginosa [1]; 8 h after inoculation
  Ergebnis der Reisolierung qualitiativ (+/-) nach Anreicherung: -
P.aeruginosa [1]; 24 h after inoculation
  Ergebnis der Reisolierung qualitiativ (+/-) nach Anreicherung: -
P.aeruginosa [1]; 32 h after inoculation
  Ergebnis der Reisolierung qualitiativ (+/-) nach Anreicherung: -
P.aeruginosa [1]; 48 h after inoculation
  Ergebnis der Reisolierung qualitiativ (+/-) nach Anreicherung: -
P.aeruginosa [1]; 72 h after inoculation
  Ergebnis der Reisolierung qualitiativ (+/-) nach Anreicherung: -
H.influenzae [2]; 2 h after inoculation
  Ergebnis der Reisolierung qualitiativ (+/-) nach Anreicherung: -
H.influenzae [2]; 4 h after inoculation
  Ergebnis der Reisolierung qualitiativ (+/-) nach Anreicherung: -
H.influenzae [2]; 6 h after inoculation
  Ergebnis der Reisolierung qualitiativ (+/-) nach Anreicherung: -
H.influenzae [2]; 8 h after inoculation
  Ergebnis der Reisolierung qualitiativ (+/-) nach Anreicherung: -
H.influenzae [2]; 24 h after inoculation
  Ergebnis der Reisolierung qualitiativ (+/-) nach Anreicherung: -
H.influenzae [2]; 32 h after inoculation
  Ergebnis der Reisolierung qualitiativ (+/-) nach Anreicherung: -
H.influenzae [2]; 48 h after inoculation
  Ergebnis der Reisolierung qualitiativ (+/-) nach Anreicherung: -
H.influenzae [2]; 72 h after inoculation
  Ergebnis der Reisolierung qualitiativ (+/-) nach Anreicherung: -
S.aureus; 2 h after inoculation
  Ergebnis der Reisolierung qualitiativ (+/-) nach Anreicherung: +
S.aureus; 4 h after inoculation
  Ergebnis der Reisolierung qualitiativ (+/-) nach Anreicherung: +
S.aureus; 6 h after inoculation
  Ergebnis der Reisolierung qualitiativ (+/-) nach Anreicherung: +
S.aureus; 8 h after inoculation
  Ergebnis der Reisolierung qualitiativ (+/-) nach Anreicherung: -
S.aureus; 24 h after inoculation
  Ergebnis der Reisolierung qualitiativ (+/-) nach Anreicherung: -
S.aureus; 32 h after inoculation
  Ergebnis der Reisolierung qualitiativ (+/-) nach Anreicherung: -
S.aureus; 48 h after inoculation
  Ergebnis der Reisolierung qualitiativ (+/-) nach Anreicherung: -
S.aureus; 72 h after inoculation
  Ergebnis der Reisolierung qualitiativ (+/-) nach Anreicherung: -
Sc. pneumoniae [3]; 2 h after inoculation
  Ergebnis der Reisolierung qualitiativ (+/-) nach Anreicherung: -
Sc. pneumoniae [3]; 4 h after inoculation
  Ergebnis der Reisolierung qualitiativ (+/-) nach Anreicherung: +
Sc. pneumoniae [3]; 6 h after inoculation
  Ergebnis der Reisolierung qualitiativ (+/-) nach Anreicherung: -
Sc. pneumoniae [3]; 8 h after inoculation
  Ergebnis der Reisolierung qualitiativ (+/-) nach Anreicherung: -
Sc. pneumoniae [3]; 24 h after inoculation
  Ergebnis der Reisolierung qualitiativ (+/-) nach Anreicherung: -
Sc. pneumoniae [3]; 32 h after inoculation
  Ergebnis der Reisolierung qualitiativ (+/-) nach Anreicherung: -
Sc. pneumoniae [3]; 48 h after inoculation
  Ergebnis der Reisolierung qualitiativ (+/-) nach Anreicherung: -
Sc. pneumoniae [3]; 72 h after inoculation
  Ergebnis der Reisolierung qualitiativ (+/-) nach Anreicherung: -
E.coli [4]; 2 h after inoculation
  Ergebnis der Reisolierung qualitiativ (+/-) nach Anreicherung: -
E.coli [4]; 4 h after inoculation
  Ergebnis der Reisolierung qualitiativ (+/-) nach Anreicherung: -
E.coli [4]; 6 h after inoculation
  Ergebnis der Reisolierung qualitiativ (+/-) nach Anreicherung: -
E.coli [4]; 8 h after inoculation
  Ergebnis der Reisolierung qualitiativ (+/-) nach Anreicherung: -
E.coli [4]; 24 h after inoculation
  Ergebnis der Reisolierung qualitiativ (+/-) nach Anreicherung: -
E.coli [4]; 32 h after inoculation
  Ergebnis der Reisolierung qualitiativ (+/-) nach Anreicherung: -
E.coli [4]; 48 h after inoculation
  Ergebnis der Reisolierung qualitiativ (+/-) nach Anreicherung: -
E.coli [4]; 72 h after inoculation
  Ergebnis der Reisolierung qualitiativ (+/-) nach Anreicherung: -
S.epidermidis [5]; 2 h after inoculation
  Ergebnis der Reisolierung qualitiativ (+/-) nach Anreicherung: +
S.epidermidis [5]; 4 h after inoculation
  Ergebnis der Reisolierung qualitiativ (+/-) nach Anreicherung: +
S.epidermidis [5]; 6 h after inoculation
  Ergebnis der Reisolierung qualitiativ (+/-) nach Anreicherung: +
S.epidermidis [5]; 8 h after inoculation
  Ergebnis der Reisolierung qualitiativ (+/-) nach Anreicherung: -
S.epidermidis [5]; 24 h after inoculation
  Ergebnis der Reisolierung qualitiativ (+/-) nach Anreicherung: -
S.epidermidis [5]; 32 h after inoculation
  Ergebnis der Reisolierung qualitiativ (+/-) nach Anreicherung: -
S.epidermidis [5]; 48 h after inoculation
  Ergebnis der Reisolierung qualitiativ (+/-) nach Anreicherung: -
S.epidermidis [5]; 72 h after inoculation
  Ergebnis der Reisolierung qualitiativ (+/-) nach Anreicherung: -
P.aeruginosa [6]; 2 h after inoculation
  Ergebnis der Reisolierung (in KBE/ml): <100 KBE/ml
P.aeruginosa [6]; 4 h after inoculation
  Ergebnis der Reisolierung (in KBE/ml): <100 KBE/ml
P.aeruginosa [6]; 6 h after inoculation
  Ergebnis der Reisolierung (in KBE/ml): <100 KBE/ml
P.aeruginosa [6]; 8 h after inoculation
  Ergebnis der Reisolierung (in KBE/ml): <100 KBE/ml
P.aeruginosa [6]; 24 h after inoculation
  Ergebnis der Reisolierung (in KBE/ml): <100 KBE/ml
P.aeruginosa [6]; 32 h after inoculation
  Ergebnis der Reisolierung (in KBE/ml): <100 KBE/ml
P.aeruginosa [6]; 48 h after inoculation
  Ergebnis der Reisolierung (in KBE/ml): <100 KBE/ml
P.aeruginosa [6]; 72 h after inoculation
  Ergebnis der Reisolierung (in KBE/ml): <100 KBE/ml
S.epidermidis [7]; 2 h after inoculation
  Ergebnis der Reisolierung (in KBE/ml): <100 KBE/ml
S.epidermidis [7]; 4 h after inoculation
  Ergebnis der Reisolierung (in KBE/ml): <100 KBE/ml
S.epidermidis [7]; 6 h after inoculation
  Ergebnis der Reisolierung (in KBE/ml): <100 KBE/ml
S.epidermidis [7]; 8 h after inoculation
  Ergebnis der Reisolierung (in KBE/ml): <100 KBE/ml
S.epidermidis [7]; 24 h after inoculation
  Ergebnis der Reisolierung (in KBE/ml): <100 KBE/ml
S.epidermidis [7]; 32 h after inoculation
  Ergebnis der Reisolierung (in KBE/ml): <100 KBE/ml
S.epidermidis [7]; 48 h after inoculation
  Ergebnis der Reisolierung (in KBE/ml): <100 KBE/ml
S.epidermidis [7]; 72 h after inoculation
  Ergebnis der Reisolierung (in KBE/ml): <100 KBE/ml
Sc. pneumoniae [8]; 2 h after inoculation
  Ergebnis der Reisolierung (in KBE/ml): <100 KBE/ml
Sc. pneumoniae [8]; 4 h after inoculation
  Ergebnis der Reisolierung (in KBE/ml): <100 KBE/ml
Sc. pneumoniae [8]; 6 h after inoculation
  Ergebnis der Reisolierung (in KBE/ml): <100 KBE/ml
Sc. pneumoniae [8]; 8 h after inoculation
  Ergebnis der Reisolierung (in KBE/ml): <100 KBE/ml
Sc. pneumoniae [8]; 24 h after inoculation
  Ergebnis der Reisolierung (in KBE/ml): <100 KBE/ml
Sc. pneumoniae [8]; 32 h after inoculation
  Ergebnis der Reisolierung (in KBE/ml): <100 KBE/ml
Sc. pneumoniae [8]; 48 h after inoculation
  Ergebnis der Reisolierung (in KBE/ml): <100 KBE/ml
Sc. pneumoniae [8]; 72 h after inoculation
  Ergebnis der Reisolierung (in KBE/ml): <100 KBE/ml
E.coli [9]; 2 h after inoculation
  Ergebnis der Reisolierung (in KBE/ml): <100 KBE/ml
E.coli [9]; 4 h after inoculation
  Ergebnis der Reisolierung (in KBE/ml): <100 KBE/ml
E.coli [9]; 6 h after inoculation
  Ergebnis der Reisolierung (in KBE/ml): <100 KBE/ml
E.coli [9]; 8 h after inoculation
  Ergebnis der Reisolierung (in KBE/ml): <100 KBE/ml
E.coli [9]; 24 h after inoculation
  Ergebnis der Reisolierung (in KBE/ml): <100 KBE/ml
E.coli [9]; 32 h after inoculation
  Ergebnis der Reisolierung (in KBE/ml): <100 KBE/ml
E.coli [9]; 48 h after inoculation
  Ergebnis der Reisolierung (in KBE/ml): <100 KBE/ml
E.coli [9]; 72 h after inoculation
  Ergebnis der Reisolierung (in KBE/ml): <100 KBE/ml
H.influenzae [10]; 2 h after inoculation
  Ergebnis der Reisolierung (in KBE/ml): <100 KBE/ml
H.influenzae [10]; 4 h after inoculation
  Ergebnis der Reisolierung (in KBE/ml): <100 KBE/ml
H.influenzae [10]; 6 h after inoculation
  Ergebnis der Reisolierung (in KBE/ml): <100 KBE/ml
H.influenzae [10]; 8 h after inoculation
  Ergebnis der Reisolierung (in KBE/ml): <100 KBE/ml
H.influenzae [10]; 24 h after inoculation
  Ergebnis der Reisolierung (in KBE/ml): <100 KBE/ml
H.influenzae [10]; 32 h after inoculation
  Ergebnis der Reisolierung (in KBE/ml): <100 KBE/ml
H.influenzae [10]; 48 h after inoculation
  Ergebnis der Reisolierung (in KBE/ml): <100 KBE/ml
H.influenzae [10]; 72 h after inoculation
  Ergebnis der Reisolierung (in KBE/ml): <100 KBE/ml
